Legend:
[1] = tested on: OA progression; conditions: mice, repeated intra-articular injections into knee joints; cited from earlier work
[2] = tested on: MSCs encapsulated in PEG-4MAL hydrogels; assay: RvD1 ELISA of media from MSCs encapsulated in PEG-4MAL hydrogels and treated with DHA; format: cell-based; conditions: 160 μM DHA, TCP and PEG-4MAL encapsulated MSCs
Description: MSCs were cultured in Tissue Culture Plastic (TCP) or encapsulated in PEG-4MAL hydrogels. The 20 kDa four-arm PEG-4MAL was sourced from Laysan Bio (Item #: 4arm-PEG-20K-5g). A solution of 4% w/v PEG in a 0.5 M (pH=7) MES buffer was prepared. The two peptides, RGD (GCGYGRGDSPG; SEQ ID NO: 1) for functionalization of the gel and VPM (GCRDVPMSMRGGDRCG; SEQ ID NO: 2) for crosslinking were also dissolved in the 0.5 M MES buffer. The hydrogels were prepared using a 2:1:1:1 volume ratio of PEG: RGD: cells/PBS: VPM. The 4% PEG translates to 2 mM in the hydrogel prepared from a 5 mM PEG stock solution. Based on the concentration of maleimides per PEG molecule (8 mM maleimide in 2 mM PEG-4MAL) the RGD concentration was 0.768 mM final concentration in the gel (from a 3.84 mM stock and accounting for ˜96% purity) and the VPM concentration required to cross-link the remaining maleimides in the PEG was 3.456 mM final in the gel (17.28 mM stock). […]
MSCs were treated with 160 μM DHA in the hydrogels in three different conditions. […] Samples of cell culture media were taken incrementally over a period of five days and Resolvin D1 levels were measured via ELISA assay. In addition, samples of the cell culture medium were taken 24 hours after treatment for each group and these samples were analyzed by LCMS (Wayne State University Lipidomics core facility).

Row | Structure (SMILES) | OA progression [1] | Duration of continued RvD1 production [2]
1 | CC/C=C\C[C@H](O)/C=C/C=C\C=C\C=C\[C@@H](O)[C@@H](O)C/C=C\CCC(=O)O [Resolvin D1] | attenuate OA progression | –
2 | CC/C=C\C/C=C\C/C=C\C/C=C\C/C=C\C/C=C\CCC(=O)O [DHA, docosahexaenoic acid] | – | at least 120 hours
